Test results taken from the supplement of paper PMC10307832.

Legend:
Experiment in all cases: relative viability (nuclei count vs DMSO), 5 days (fraction); higher = more cells survive
Wnt-C59 + AZD7762 = compound: CC1=NC=CC(=C1)C2=CC=C(C=C2)CC(=O)NC3=CC=C(C=C3)C4=CN=CC=C4 [Wnt-C59] + NC(=O)Nc1cc(-c2cccc(F)c2)sc1C(=O)N[C@H]1CCCNC1 [AZD7762] (partner 0.2 µM)
Procedure, shortened: (§1)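 Values are medians from duplicate plates. Each reflects relative viability, defined as the nuclei count of treated wells over that of vehicle wells. Lung cancer cell lines in 1536-well plates were pin-tool dosed one day after seeding with one drug alone or with a fixed anchor-drug dose plus five library-drug doses (not always all listed) in √10 steps, then fixed, stained and imaged at 4× after 5 days.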

Wnt-C59 + Vorinostat = compound: CC1=NC=CC(=C1)C2=CC=C(C=C2)CC(=O)NC3=CC=C(C=C3)C4=CN=CC=C4 [Wnt-C59] + O=C(CCCCCCC(=O)Nc1ccccc1)NO [Vorinostat] (partner 1 µM)
Procedure, shortened: as §1

Lapatinib + Crizotinib = compound: CS(=O)(=O)CCNCc1ccc(-c2ccc3ncnc(Nc4ccc(OCc5cccc(F)c5)c(Cl)c4)c3c2)o1 [Lapatinib] + C[C@@H](Oc1cc(-c2cnn(C3CCNCC3)c2)cnc1N)c1c(Cl)ccc(F)c1Cl [Crizotinib] (partner 1 µM)
Procedure, shortened: as §1

Wnt-C59 + Alpelisib = compound: CC1=NC=CC(=C1)C2=CC=C(C=C2)CC(=O)NC3=CC=C(C=C3)C4=CN=CC=C4 [Wnt-C59] + Cc1nc(NC(=O)N2CCC[C@H]2C(N)=O)sc1-c1ccnc(C(C)(C)C(F)(F)F)c1 [Alpelisib] (partner 2 µM)
Procedure, shortened: as §1

Cell Line | relative viability (Wnt-C59 + AZD7762; first compound 0.001 µM) | relative viability (Wnt-C59 + AZD7762; first compound 0.01 µM) | relative viability (Wnt-C59 + AZD7762; first compound 0.03162 µM) | relative viability (Wnt-C59 + AZD7762; first compound 0.1 µM) | relative viability (Wnt-C59 + Vorinostat; first compound 0.001 µM) | relative viability (Wnt-C59 + Vorinostat; first compound 0.01 µM) | relative viability (Wnt-C59 + Vorinostat; first compound 0.03162 µM) | relative viability (Wnt-C59 + Vorinostat; first compound 0.1 µM) | relative viability (Lapatinib + Crizotinib; first compound 0.06325 µM) | relative viability (Lapatinib + Crizotinib; first compound 0.2 µM) | relative viability (Lapatinib + Crizotinib; first compound 0.6325 µM) | relative viability (Lapatinib + Crizotinib; first compound 2 µM) | relative viability (Wnt-C59 + Alpelisib; first compound 0.001 µM) | relative viability (Wnt-C59 + Alpelisib; first compound 0.01 µM) | relative viability (Wnt-C59 + Alpelisib; first compound 0.03162 µM) | relative viability (Wnt-C59 + Alpelisib; first compound 0.1 µM) | relative viability (Lapatinib + Crizotinib; first compound 0.02 µM)
NCI-H1355 | 0.81 | 0.753 | 0.753 | 0.766 | 0.639 | 0.529 | 0.601 | 0.596 | 0.854 | 1.02 | 1.02 | 0.606 | 1.01 | 0.746 | 0.801 | 0.733 | –
201T | 0.713 | 0.697 | 0.598 | 0.606 | 0.979 | 0.991 | 1.03 | 0.983 | 0.996 | 1.02 | 0.966 | 0.977 | 1.06 | 1.01 | 0.99 | 1 | 0.869
HCC-15 | 1.28 | 1.34 | 1.29 | 1.06 | 0.851 | 0.817 | 1.05 | 0.892 | 0.786 | 0.808 | 0.835 | 0.704 | 0.962 | 0.952 | 0.904 | 0.868 | –
NCI-H2405 | 0.759 | 0.75 | 0.759 | 0.8 | 1 | 1.05 | 1.15 | 1.17 | 0.753 | 0.884 | 0.824 | 0.767 | 0.89 | – | 0.646 | 0.789 | 0.628
NCI-H838 | 0.958 | 0.942 | 0.966 | 0.883 | 0.709 | 0.704 | 0.786 | 0.708 | 0.764 | 1.07 | 0.855 | 0.757 | 1.06 | 0.98 | 1.13 | 1.02 | 0.838
EPLC-272H | 0.246 | 0.247 | 0.289 | 0.247 | 0.394 | 0.561 | 0.512 | 0.396 | 0.722 | 0.831 | 0.79 | 0.639 | 0.96 | 0.861 | 0.976 | 0.921 | –
NCI-H1915 | 0.761 | 0.69 | 0.708 | 0.69 | 0.487 | 0.492 | 0.629 | 0.526 | 0.868 | 0.887 | 0.846 | 0.86 | 1.07 | 1.01 | 1.07 | 1.03 | –
EMC-BAC-2 | 0.941 | 0.975 | 0.897 | 0.975 | 0.421 | 0.412 | 0.409 | 0.751 | 0.635 | 0.788 | 0.661 | 0.74 | 0.684 | 0.607 | 0.672 | 0.65 | 0.729
